From ChEMBL document CHEMBL3232755, “Optimization of plasmepsin inhibitor by focusing on similar structural feature with chloroquine to avoid drug-resistant mechanism of Plasmodium falciparum” (Bioorg Med Chem Lett, 2014)

How the values were obtained:
Plasmepsin II = Plasmepsin II (Plasmodium falciparum, UniProt P46925); test: Inhibition of Plasmodium falciparum plasmepsin 2
Plasmodium falciparum [1] = test: Resistance index, ratio of EC50 for chloroquine, mefloquine and pyrimethamine-resistant Plasmodium falciparum TM91C235 to EC50 for chloroquine-sensitive Plasmodium falciparum D6; format: functional
Plasmodium falciparum [2] = test: Antimalarial activity against chloroquine-sensitive Plasmodium falciparum D6 by SYBR green I staining-based fluorescence assay; format: functional, organism-based
Plasmodium falciparum [3] = test: Antimalarial activity against chloroquine, mefloquine and pyrimethamine-resistant Plasmodium falciparum TM91C235 by SYBR green I staining-based fluorescence assay; format: functional, organism-based
Plasmodium falciparum [4] = test: Antimalarial activity against chloroquine and pyrimethamine-resistant mefloquine-sensitive Plasmodium falciparum W2 by SYBR green I staining-based fluorescence assay; format: functional, organism-based
Plasmodium falciparum [5] = test: Resistance index, ratio of EC50 for chloroquine and pyrimethamine-resistant mefloquine-sensitive Plasmodium falciparum W2 to EC50 for chloroquine-sensitive Plasmodium falciparum D6; format: functional

Plasmepsin II, sequence (P46925 whole entry): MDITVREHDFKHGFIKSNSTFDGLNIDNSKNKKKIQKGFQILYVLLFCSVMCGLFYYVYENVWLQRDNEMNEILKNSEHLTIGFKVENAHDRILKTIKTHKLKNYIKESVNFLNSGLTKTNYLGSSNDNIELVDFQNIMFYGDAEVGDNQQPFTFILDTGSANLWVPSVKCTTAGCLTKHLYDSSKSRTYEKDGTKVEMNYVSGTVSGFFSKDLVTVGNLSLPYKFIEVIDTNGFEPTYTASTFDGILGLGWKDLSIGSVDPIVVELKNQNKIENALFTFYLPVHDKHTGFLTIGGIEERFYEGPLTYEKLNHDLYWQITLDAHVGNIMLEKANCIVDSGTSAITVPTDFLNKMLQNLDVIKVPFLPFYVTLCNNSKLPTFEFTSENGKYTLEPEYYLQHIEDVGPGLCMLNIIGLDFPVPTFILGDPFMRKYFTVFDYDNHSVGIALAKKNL

SMILES: CCOP(=O)(CCNc1cc(C)c(OCC(=O)N[C@@H](Cc2ccccc2)[C@H](O)C(=O)N2CSC(C)(C)[C@H]2C(=O)N[C@H]2c3ccccc3C[C@H]2O)c(C)c1)OCC
- Ki (Plasmepsin II): 22 nM
- Ratio EC50 (Plasmodium falciparum [1]): <=2
- EC50 (Plasmodium falciparum [2]): 600 nM

SMILES: Cc1cc(NC(=O)CCCCN)cc(C)c1OCC(=O)N[C@@H](Cc1ccccc1)[C@H](O)C(=O)N1CSC(C)(C)[C@H]1C(=O)N[C@H]1c2ccccc2C[C@H]1O
- EC50 (Plasmodium falciparum [3]): 620 nM
- Ki (Plasmepsin II): 1 nM
- Ratio EC50 (Plasmodium falciparum [1]): 0.34
- EC50 (Plasmodium falciparum [2]): 1800 nM

SMILES: Cc1cc(NCCCl)cc(C)c1OCC(=O)N[C@@H](Cc1ccccc1)[C@H](O)C(=O)N1CSC(C)(C)[C@H]1C(=O)N[C@H]1c2ccccc2C[C@H]1O
- Ki (Plasmepsin II): 5.5 nM
- Ratio EC50 (Plasmodium falciparum [1]): <=2

SMILES: Cc1cc(NCc2c[nH]cn2)cc(C)c1OCC(=O)N[C@@H](Cc1ccccc1)[C@H](O)C(=O)N1CSC(C)(C)[C@H]1C(=O)N[C@H]1c2ccccc2C[C@H]1O
- Ki (Plasmepsin II): 4.8 nM
- Ratio EC50 (Plasmodium falciparum [1]): <=2

SMILES: Cc1cc(NCc2ccnc3ccccc23)cc(C)c1OCC(=O)N[C@@H](Cc1ccccc1)[C@H](O)C(=O)N1CSC(C)(C)[C@H]1C(=O)N[C@H]1c2ccccc2C[C@H]1O
- Ki (Plasmepsin II): 1.7 nM
- Ratio EC50 (Plasmodium falciparum [1]): <=2
- EC50 (Plasmodium falciparum [2]): 500 nM

SMILES: Cc1cc(NCc2ccccn2)cc(C)c1OCC(=O)N[C@@H](Cc1ccccc1)[C@H](O)C(=O)N1CSC(C)(C)[C@H]1C(=O)N[C@H]1c2ccccc2C[C@H]1O
- EC50 (Plasmodium falciparum [4]): 730 nM
- Ratio EC50 (Plasmodium falciparum [5]): 1.3

SMILES: CNCCN(C)c1cc(C)c(OCC(=O)N[C@@H](Cc2ccccc2)[C@H](O)C(=O)N2CSC(C)(C)[C@H]2C(=O)N[C@H]2c3ccccc3C[C@H]2O)c(C)c1
- EC50 (Plasmodium falciparum [3]): 860 nM
- Ratio EC50 (Plasmodium falciparum [1]): 4.5

SMILES: COC(CNc1cc(C)c(OCC(=O)N[C@@H](Cc2ccccc2)[C@H](O)C(=O)N2CSC(C)(C)[C@H]2C(=O)N[C@H]2c3ccccc3C[C@H]2O)c(C)c1)OC
- Ki (Plasmepsin II): 11 nM
- Ratio EC50 (Plasmodium falciparum [1]): <=2
- EC50 (Plasmodium falciparum [2]): 850 nM

SMILES: Cc1cc(NC(=O)CN2CCOCC2)cc(C)c1OCC(=O)N[C@@H](Cc1ccccc1)[C@H](O)C(=O)N1CSC(C)(C)[C@H]1C(=O)N[C@H]1c2ccccc2C[C@H]1O
- Ki (Plasmepsin II): 4.3 nM

SMILES: Cc1cc(NC(=O)CN)cc(C)c1OCC(=O)N[C@@H](Cc1ccccc1)[C@H](O)C(=O)N1CSC(C)(C)[C@H]1C(=O)N[C@H]1c2ccccc2C[C@H]1O
- Ki (Plasmepsin II): 1.2 nM

SMILES: Cc1cc(NC(=O)CCN)cc(C)c1OCC(=O)N[C@@H](Cc1ccccc1)[C@H](O)C(=O)N1CSC(C)(C)[C@H]1C(=O)N[C@H]1c2ccccc2C[C@H]1O
- EC50 (Plasmodium falciparum [3]): 730 nM
- Ki (Plasmepsin II): 2.3 nM
- Ratio EC50 (Plasmodium falciparum [1]): 2.8
- EC50 (Plasmodium falciparum [2]): 260 nM

SMILES: CCNCCNc1cc(C)c(OCC(=O)N[C@@H](Cc2ccccc2)[C@H](O)C(=O)N2CSC(C)(C)[C@H]2C(=O)N[C@H]2c3ccccc3C[C@H]2O)c(C)c1
- EC50 (Plasmodium falciparum [3]): 1900 nM
- Ratio EC50 (Plasmodium falciparum [1]): 8.6

SMILES: Cc1cc(NC(=O)CCCCCN)cc(C)c1OCC(=O)N[C@@H](Cc1ccccc1)[C@H](O)C(=O)N1CSC(C)(C)[C@H]1C(=O)N[C@H]1c2ccccc2C[C@H]1O
- EC50 (Plasmodium falciparum [3]): 720 nM
- Ki (Plasmepsin II): 5.7 nM
- Ratio EC50 (Plasmodium falciparum [1]): 0.28
- EC50 (Plasmodium falciparum [2]): 2600 nM

SMILES: Cc1cccc(CNc2cc(C)c(OCC(=O)N[C@@H](Cc3ccccc3)[C@H](O)C(=O)N3CSC(C)(C)[C@H]3C(=O)N[C@H]3c4ccccc4C[C@H]3O)c(C)c2)n1
- Ki (Plasmepsin II): 4.4 nM
- Ratio EC50 (Plasmodium falciparum [1]): <=2

SMILES: Cc1cc(NC(=O)CCCN)cc(C)c1OCC(=O)N[C@@H](Cc1ccccc1)[C@H](O)C(=O)N1CSC(C)(C)[C@H]1C(=O)N[C@H]1c2ccccc2C[C@H]1O
- EC50 (Plasmodium falciparum [3]): 1300 nM
- Ki (Plasmepsin II): 1.1 nM
- Ratio EC50 (Plasmodium falciparum [1]): 0.41
- EC50 (Plasmodium falciparum [2]): 3200 nM
